Data from the supplement of paper PMC10307832.

Experiments:
Experiment in all cases: relative viability (nuclei count vs DMSO), 5 days (fraction); higher = more cells survive
201T = system: 201T
Outline: (§1)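 Lung cancer cell lines in 1536-well plates got either a single drug or a fixed anchor-drug dose together with five library-drug doses (not always all listed) in √10 steps, by pin tool, on the day after seeding. Nuclei were counted after 5 days, and relative viability is the treated-to-vehicle ratio of nuclei counts. Values are medians of duplicate plates.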

NCI-H1437 = system: NCI-H1437
Outline: as §1

PC-3 [JPC-3] = system: PC-3 [JPC-3]
Outline: as §1

HCC-78 = system: HCC-78
Outline: as §1

NCI-H1734 = system: NCI-H1734
Outline: as §1

UMC-11 = system: UMC-11
Outline: as §1

SW 1573 = system: SW 1573
Outline: as §1

HCC-44 = system: HCC-44
Outline: as §1

LU99A = system: LU99A
Outline: as §1

NCI-H441 = system: NCI-H441
Outline: as §1

NCI-H1355 = system: NCI-H1355
Outline: as §1

HCC-366 = system: HCC-366
Outline: as §1

NCI-H2126 = system: NCI-H2126
Outline: as §1

NCI-H358 = system: NCI-H358
Outline: as §1

NCI-H727 = system: NCI-H727
Outline: as §1

NCI-H520 = system: NCI-H520
Outline: as §1

NCI-H2009 = system: NCI-H2009
Outline: as §1

BEN = system: BEN
Outline: as §1

NCI-H2347 = system: NCI-H2347
Outline: as §1

NCI-H838 = system: NCI-H838
Outline: as §1

HARA = system: HARA
Outline: as §1

NCI-H2405 = system: NCI-H2405
Outline: as §1

Compound `COCC1(CO)C(=O)C2CCN1CC2` (stereo not given) [PRIMA-1MET] + N=C(N)NC(=N)NCCc1ccccc1 [Phenformin] (partner 250 µM) has a relative viability (201T; first compound 0.2 µM) of 0.444, a relative viability (201T; first compound 0.6325 µM) of 0.452 and a relative viability (201T; first compound 2 µM) of 0.397. It also gave a relative viability (201T; first compound 6.325 µM) of 0.452, a relative viability (201T; first compound 20 µM) of 0.464 and a relative viability (NCI-H1437; first compound 0.2 µM) of 0.322. The relative viability (NCI-H1437; first compound 0.6325 µM) was 0.331, the relative viability (NCI-H1437; first compound 2 µM) was 0.259 and the relative viability (NCI-H1437; first compound 6.325 µM) was 0.298. For the same compound, the relative viability (NCI-H1437; first compound 20 µM) was 0.294, the relative viability (PC-3 [JPC-3]; first compound 0.2 µM) was 0.464 and the relative viability (PC-3 [JPC-3]; first compound 0.6325 µM) was 0.456. It also gave a relative viability (PC-3 [JPC-3]; first compound 2 µM) of 0.462, a relative viability (PC-3 [JPC-3]; first compound 6.325 µM) of 0.477 and a relative viability (PC-3 [JPC-3]; first compound 20 µM) of 0.466. The relative viability (HCC-78; first compound 0.2 µM) was 0.7, the relative viability (HCC-78; first compound 0.6325 µM) was 0.648 and the relative viability (HCC-78; first compound 6.325 µM) was 0.658. For the same compound, the relative viability (HCC-78; first compound 20 µM) was 0.599, the relative viability (NCI-H1734; first compound 0.2 µM) was 0.385 and the relative viability (NCI-H1734; first compound 0.6325 µM) was 0.328. The relative viability (NCI-H1734; first compound 2 µM) was 0.324, the relative viability (NCI-H1734; first compound 6.325 µM) was 0.361 and the relative viability (NCI-H1734; first compound 20 µM) was 0.058. It also gave a relative viability (UMC-11; first compound 0.2 µM) of 0.348, a relative viability (UMC-11; first compound 0.6325 µM) of 0.31 and a relative viability (UMC-11; first compound 2 µM) of 0.264. It also gave a relative viability (UMC-11; first compound 6.325 µM) of 0.343, a relative viability (UMC-11; first compound 20 µM) of 0.254 and a relative viability (SW 1573; first compound 0.2 µM) of 0.408. It also gave a relative viability (SW 1573; first compound 0.6325 µM) of 0.291, a relative viability (SW 1573; first compound 2 µM) of 0.393 and a relative viability (SW 1573; first compound 6.325 µM) of 0.22. It also gave a relative viability (SW 1573; first compound 20 µM) of 0.0256, a relative viability (HCC-44; first compound 0.2 µM) of 0.265 and a relative viability (HCC-44; first compound 0.6325 µM) of 0.137. For the same compound, the relative viability (HCC-44; first compound 2 µM) was 0.244, the relative viability (HCC-44; first compound 6.325 µM) was 0.2 and the relative viability (HCC-44; first compound 20 µM) was 0.236. It also gave a relative viability (LU99A; first compound 0.2 µM) of 0.646, a relative viability (LU99A; first compound 0.6325 µM) of 0.736 and a relative viability (LU99A; first compound 2 µM) of 0.734. It also gave a relative viability (LU99A; first compound 6.325 µM) of 0.831, a relative viability (LU99A; first compound 20 µM) of 0.0482 and a relative viability (NCI-H441; first compound 0.2 µM) of 0.872. For the same compound, the relative viability (NCI-H441; first compound 0.6325 µM) was 0.762, the relative viability (NCI-H441; first compound 2 µM) was 0.838 and the relative viability (NCI-H441; first compound 6.325 µM) was 0.657. It also gave a relative viability (NCI-H441; first compound 20 µM) of 0.183, a relative viability (NCI-H1355; first compound 0.2 µM) of 0.443 and a relative viability (NCI-H1355; first compound 0.6325 µM) of 0.409. For the same compound, the relative viability (NCI-H1355; first compound 2 µM) was 0.384, the relative viability (NCI-H1355; first compound 6.325 µM) was 0.46 and the relative viability (NCI-H1355; first compound 20 µM) was 0.421. The relative viability (HCC-366; first compound 0.2 µM) was 0.651, the relative viability (HCC-366; first compound 0.6325 µM) was 0.611 and the relative viability (HCC-366; first compound 2 µM) was 0.484. It also gave a relative viability (HCC-366; first compound 6.325 µM) of 0.633, a relative viability (HCC-366; first compound 20 µM) of 0.462 and a relative viability (NCI-H2126; first compound 0.2 µM) of 0.568. The relative viability (NCI-H2126; first compound 0.6325 µM) was 0.532, the relative viability (NCI-H2126; first compound 2 µM) was 0.513 and the relative viability (NCI-H2126; first compound 6.325 µM) was 0.577. For the same compound, the relative viability (NCI-H2126; first compound 20 µM) was 0.531, the relative viability (NCI-H358; first compound 0.2 µM) was 0.341 and the relative viability (NCI-H358; first compound 2 µM) was 0.253. For the same compound, the relative viability (NCI-H358; first compound 6.325 µM) was 0.279, the relative viability (NCI-H358; first compound 20 µM) was 0.0042 and the relative viability (NCI-H727; first compound 0.2 µM) was 0.472. It also gave a relative viability (NCI-H727; first compound 0.6325 µM) of 0.395, a relative viability (NCI-H727; first compound 2 µM) of 0.387 and a relative viability (NCI-H727; first compound 6.325 µM) of 0.342. The relative viability (NCI-H727; first compound 20 µM) was 0.124, the relative viability (NCI-H520; first compound 0.2 µM) was 0.605 and the relative viability (NCI-H520; first compound 0.6325 µM) was 0.501. For the same compound, the relative viability (NCI-H520; first compound 2 µM) was 0.314, the relative viability (NCI-H520; first compound 6.325 µM) was 0.289 and the relative viability (NCI-H520; first compound 20 µM) was 0.155. It also gave a relative viability (NCI-H2009; first compound 0.2 µM) of 0.497, a relative viability (NCI-H2009; first compound 0.6325 µM) of 0.456 and a relative viability (NCI-H2009; first compound 2 µM) of 0.519. The relative viability (NCI-H2009; first compound 6.325 µM) was 0.53, the relative viability (NCI-H2009; first compound 20 µM) was 0.217 and the relative viability (BEN; first compound 0.2 µM) was 0.268. It also gave a relative viability (BEN; first compound 0.6325 µM) of 0.275, a relative viability (BEN; first compound 6.325 µM) of 0.217 and a relative viability (BEN; first compound 20 µM) of 0.224. It also gave a relative viability (NCI-H2347; first compound 0.2 µM) of 0.265, a relative viability (NCI-H2347; first compound 0.6325 µM) of 0.366 and a relative viability (NCI-H2347; first compound 2 µM) of 0.231. It also gave a relative viability (NCI-H2347; first compound 6.325 µM) of 0.28, a relative viability (NCI-H2347; first compound 20 µM) of 0.387 and a relative viability (NCI-H838; first compound 0.2 µM) of 0.574. It also gave a relative viability (NCI-H838; first compound 0.6325 µM) of 0.535, a relative viability (NCI-H838; first compound 2 µM) of 0.451 and a relative viability (NCI-H838; first compound 6.325 µM) of 0.712. The relative viability (NCI-H838; first compound 20 µM) was 0.0931, the relative viability (HARA; first compound 0.2 µM) was 0.526 and the relative viability (HARA; first compound 0.6325 µM) was 0.421. For the same compound, the relative viability (HARA; first compound 6.325 µM) was 0.538, the relative viability (HARA; first compound 20 µM) was 0.409 and the relative viability (NCI-H2405; first compound 0.2 µM) was 0.296. The relative viability (NCI-H2405; first compound 0.6325 µM) was 0.401, the relative viability (NCI-H2405; first compound 6.325 µM) was 0.288 and the relative viability (NCI-H2405; first compound 20 µM) was 0.0656.
